Laboratory results from PubChem BioAssay (NCI).
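Assay format: 96-well plates, 48-hour exposure. GI50: concentration for 50% inhibition of growth. At the TGI there is no net growth.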

Key:
Test in all cases: NCI-60 cell line screen, 48 h
786-0 renal = tested on: 786-0 renal
A498 renal = tested on: A498 renal
A549 NSCLC = tested on: A549 NSCLC
ACHN renal = tested on: ACHN renal
CAKI-1 renal = tested on: CAKI-1 renal
CCRF-CEM leukemia = tested on: CCRF-CEM leukemia
COLO 205 colon = tested on: COLO 205 colon
DLD-1 colon = tested on: DLD-1 colon
DMS 273 small cell lung = tested on: DMS 273 small cell lung
EKVX NSCLC = tested on: EKVX NSCLC
HCC-2998 colon = tested on: HCC-2998 colon
HCT-15 colon = tested on: HCT-15 colon
HL-60(TB) leukemia = tested on: HL-60(TB) leukemia
HOP-62 NSCLC = tested on: HOP-62 NSCLC
HOP-92 NSCLC = tested on: HOP-92 NSCLC
HT29 colon = tested on: HT29 colon
IGROV1 ovarian = tested on: IGROV1 ovarian
K-562 leukemia = tested on: K-562 leukemia
KM12 colon = tested on: KM12 colon
KM20L2 colon = tested on: KM20L2 colon
LOX IMVI melanoma = tested on: LOX IMVI melanoma
LXFL 529 NSCLC = tested on: LXFL 529 NSCLC
M14 melanoma = tested on: M14 melanoma
M19-MEL melanoma = tested on: M19-MEL melanoma
MALME-3M melanoma = tested on: MALME-3M melanoma
MOLT-4 leukemia = tested on: MOLT-4 leukemia
NCI-H23 lung = tested on: NCI-H23 lung
NCI-H460 lung = tested on: NCI-H460 lung
NCI-H522 lung = tested on: NCI-H522 lung
OVCAR-3 ovarian = tested on: OVCAR-3 ovarian
OVCAR-4 ovarian = tested on: OVCAR-4 ovarian
OVCAR-5 ovarian = tested on: OVCAR-5 ovarian
OVCAR-8 ovarian = tested on: OVCAR-8 ovarian
RPMI-8226 leukemia = tested on: RPMI-8226 leukemia
RXF 393 renal = tested on: RXF 393 renal
SF-268 CNS = tested on: SF-268 CNS
SF-295 CNS = tested on: SF-295 CNS
SF-539 CNS = tested on: SF-539 CNS
SK-MEL-2 melanoma = tested on: SK-MEL-2 melanoma
SK-MEL-28 melanoma = tested on: SK-MEL-28 melanoma
SK-MEL-5 melanoma = tested on: SK-MEL-5 melanoma
SK-OV-3 ovarian = tested on: SK-OV-3 ovarian
SN12C renal = tested on: SN12C renal
SNB-19 CNS = tested on: SNB-19 CNS
SNB-75 CNS = tested on: SNB-75 CNS
SW-620 colon = tested on: SW-620 colon
TK-10 renal = tested on: TK-10 renal
U251 CNS = tested on: U251 CNS
UACC-257 melanoma = tested on: UACC-257 melanoma
UACC-62 melanoma = tested on: UACC-62 melanoma
UO-31 renal = tested on: UO-31 renal
XF 498 CNS = tested on: XF 498 CNS

Q: What does the source list for `O=C([CH-]C(=O)C(F)(F)F)c1ccccc1.O=C([CH-]C(=O)C(F)(F)F)c1ccccc1.[O]=[U+2]=[O]`?
A: GI50 (786-0 renal): 21.7 µM; TGI (786-0 renal): 89.4 µM; GI50 (A498 renal): 24.6 µM; TGI (A498 renal): 74.4 µM; GI50 (A549 NSCLC): 27.4 µM; TGI (A549 NSCLC): > 100 µM; GI50 (ACHN renal): 13.6 µM; TGI (ACHN renal): 80.9 µM; GI50 (CAKI-1 renal): 39 µM; TGI (CAKI-1 renal): > 100 µM; GI50 (CCRF-CEM leukemia): 11.4 µM; TGI (CCRF-CEM leukemia): > 100 µM; GI50 (COLO 205 colon): 34.5 µM; TGI (COLO 205 colon): > 100 µM; GI50 (DLD-1 colon): 7.75 µM; TGI (DLD-1 colon): > 100 µM; GI50 (DMS 273 small cell lung): 7.38 µM; TGI (DMS 273 small cell lung): > 100 µM; GI50 (EKVX NSCLC): 22.3 µM; TGI (EKVX NSCLC): 72.9 µM; GI50 (HCC-2998 colon): 14.4 µM; TGI (HCC-2998 colon): 61.7 µM; GI50 (HCT-15 colon): 7.27 µM; TGI (HCT-15 colon): > 100 µM; GI50 (HL-60(TB) leukemia): 15.8 µM; TGI (HL-60(TB) leukemia): 78.4 µM; GI50 (HOP-62 NSCLC): 15.1 µM; TGI (HOP-62 NSCLC): 53.9 µM; GI50 (HOP-92 NSCLC): 30.9 µM; TGI (HOP-92 NSCLC): 95.6 µM; GI50 (HT29 colon): 28.3 µM; TGI (HT29 colon): 68.2 µM; GI50 (IGROV1 ovarian): 16.5 µM; TGI (IGROV1 ovarian): > 100 µM; GI50 (K-562 leukemia): 13.1 µM; TGI (K-562 leukemia): > 100 µM; GI50 (KM12 colon): 26 µM; TGI (KM12 colon): 92.6 µM; GI50 (KM20L2 colon): 19.9 µM; TGI (KM20L2 colon): > 100 µM; GI50 (LOX IMVI melanoma): 13 µM; TGI (LOX IMVI melanoma): > 100 µM; GI50 (LXFL 529 NSCLC): 7.33 µM; TGI (LXFL 529 NSCLC): > 100 µM; GI50 (M14 melanoma): 19.1 µM; TGI (M14 melanoma): 88.9 µM; GI50 (M19-MEL melanoma): 16.6 µM; TGI (M19-MEL melanoma): > 100 µM; GI50 (MALME-3M melanoma): 18.6 µM; TGI (MALME-3M melanoma): 47.7 µM; GI50 (MOLT-4 leukemia): 19.4 µM; TGI (MOLT-4 leukemia): > 100 µM; GI50 (NCI-H23 lung): 4.71 µM; TGI (NCI-H23 lung): 67.7 µM; GI50 (NCI-H460 lung): 12.6 µM; TGI (NCI-H460 lung): 90.6 µM; GI50 (NCI-H522 lung): 4.11 µM; TGI (NCI-H522 lung): > 100 µM; GI50 (OVCAR-3 ovarian): 18 µM; TGI (OVCAR-3 ovarian): 56.7 µM; GI50 (OVCAR-4 ovarian): 10.4 µM; TGI (OVCAR-4 ovarian): > 100 µM; GI50 (OVCAR-5 ovarian): 64.1 µM; TGI (OVCAR-5 ovarian): > 100 µM; GI50 (OVCAR-8 ovarian): 14.1 µM; TGI (OVCAR-8 ovarian): 93.6 µM; GI50 (RPMI-8226 leukemia): 8.51 µM; TGI (RPMI-8226 leukemia): > 100 µM; GI50 (RXF 393 renal): 16.9 µM; TGI (RXF 393 renal): 45.4 µM; GI50 (SF-268 CNS): 4.53 µM; TGI (SF-268 CNS): > 100 µM; GI50 (SF-295 CNS): 20.8 µM; TGI (SF-295 CNS): 86.5 µM; GI50 (SF-539 CNS): 4.13 µM; TGI (SF-539 CNS): > 100 µM; GI50 (SK-MEL-2 melanoma): 28 µM; TGI (SK-MEL-2 melanoma): > 100 µM; GI50 (SK-MEL-28 melanoma): 9.2 µM; TGI (SK-MEL-28 melanoma): 79.5 µM; GI50 (SK-MEL-5 melanoma): 17.8 µM; TGI (SK-MEL-5 melanoma): > 100 µM; GI50 (SK-OV-3 ovarian): 51.4 µM; TGI (SK-OV-3 ovarian): > 100 µM; GI50 (SN12C renal): 9.1 µM; TGI (SN12C renal): > 100 µM; GI50 (SNB-19 CNS): 4.62 µM; TGI (SNB-19 CNS): > 100 µM; GI50 (SNB-75 CNS): 28.8 µM; TGI (SNB-75 CNS): 85.8 µM; GI50 (SW-620 colon): 27.9 µM; TGI (SW-620 colon): > 100 µM; GI50 (TK-10 renal): 20.4 µM; TGI (TK-10 renal): 64.1 µM; GI50 (U251 CNS): 5.61 µM; TGI (U251 CNS): > 100 µM; GI50 (UACC-257 melanoma): 27.3 µM; TGI (UACC-257 melanoma): > 100 µM; GI50 (UACC-62 melanoma): 12.2 µM; TGI (UACC-62 melanoma): 87.9 µM; GI50 (UO-31 renal): 5.4 µM; TGI (UO-31 renal): > 100 µM; GI50 (XF 498 CNS): 23.8 µM; TGI (XF 498 CNS): 69.9 µM
